# Experimental data from patent publication US20210154162A1, “DRUG AND PHARMACEUTICAL COMPOSITION CONTAINING TRANSPORT PROTEIN INHIBITOR, AND USE” (Institute of Basic Medical Sciences Chinese Academy of …, priority 2018, published 2021).
# Legend:
# [1] = tested on: OVA-B16 TRCs; assay: OVA-B16 TRC / activated OT-1 T cell co-culture with IDO1 or SLC1A5 blockade (flow cytometry); assay type: cell-based, mouse; conditions: for expression of IFN-γ, TNF-α and CD107a: T cells in co-culture with OVA-B16 TRCs; for PD-1 expression on T cells: co-culture with OVA-B16 TRCs, 24 h; for TRC apoptosis: co-culture with activated OT-1 T cells, 4 h
# Protocol: (7) Scramble- or shIDO1-(Sh1 or Sh2)-OVA B16 TRCs were co-cultured with anti-CD3/CD28 bead-activated OT-1 T cells. After 4 h or 24 h, TRC apoptosis (as shown in FIG. 2G) or PD-1 expression on T cells (as shown in FIG. 2H) was analyzed by flow cytometry. The analysis results were as shown in FIG. 2G and FIG. 2H, respectively.
# (9) Scramble- and shSLC1A5-(Sh1 or Sh2)-OVA B16 TRCs were co-cultured with anti-CD3/CD28 bead-activated OT-1 T cells. After 4 h or 24 h, TRC apoptosis (as shown in FIG. 2J) or PD-1 expression (as shown in FIG. 2K) was analyzed by flow cytometry. The analysis results were as shown in FIG. 2J and FIG. 2K, respectively.
# [2] = tested on: PD-1; assay: PD-1 expression in patients' peripheral blood T cells treated with supernatants of IFN-γ-treated CD45- tumor cells; assay type: cell-based, human; conditions: CD45- tumor cells treated with IFN-γ with or without 1-MT 24 h; supernatants on T cells 24 h
# Protocol: Moreover, very high PD-1 expression was found in tumor-infiltrating CD8^+ T cells of breast and colon cancer patients (FIG. 7A). […] It was worth noting that Kyn levels were strongly correlated with PD-1 expression in breast and colon cancer patients, but not in healthy people (FIG. 7C). To clarify the cellular source of the Kyn production, CD45^+ immune cells and CD45^− tumor cells isolated from breast tumor tissues (n=10) and colon tumor tissues (n=14) of patients were analyzed. IDO1 expression as well as Kyn levels were dominantly high in CD45^− cells rather than CD45^+ cells. Then, the inventors treated CD45^− tumor cells with IFN-γ in the presence or absence of 1-MT for 24 hours in vitro. The supernatants were used to treat peripheral blood T cells of patients for 24 hours.
# [3] = tested on: PD-1; assay: OVA-B16 melanoma-bearing mice with adoptively transferred CFSE-labeled OT-1 T cells, PD-1 expression; assay type: in vivo, mouse; conditions: DMF 5 μg/mouse, 6 days; CFSE+ T cells from tumor mass, spleen or lymph nodes
# Protocol: (6) C57BL/6 mice with 5×5 mm OVA-B16 melanoma were adoptively transferred with CFSE-labeled OT-1 CD8^+ T cells (4×10^6 cells/mouse, once every three days) on three occasions. At the same time, some mice were i.p. injected with Kyn (50 μg/mouse, once every two days) for three times. On Day 7 after transferring, CFSE^+CD8^+ T cells were isolated from tumor for flow cytometric analysis of PD-1 expression.
# (8) The experimental steps were the same as those of step (7), except that C57BL/6 mice were treated with Kyn, DMF (5 μg/mouse, o.t., twice every day) or Kyn+DMF for 6 days. CFSE^+CD8^+ T cells from tumor were isolated for flow cytometric analysis of PD-1 expression.
# [4] = tested on: PAT4 and SLC7A8; assay: PAT4 and SLC7A8 expression in CD8+ T cells from breast cancer patients (real-time PCR); assay type: cell-based, human; conditions: Kyn/DMF (20 μM) or Kyn/CH (50 μM), 48 h
# Protocol: (8) CD8^+ T cells from breast cancer patients were treated with PBS, Kyn ([…] (20 μM) or Kyn/CH (50 μM) for 48 h. The expression of PAT4 and SLC7A8 was determined by real-time PCR. The determination results were as shown in FIG. 7I.
# [5] = tested on: OVA-B16 melanoma; assay: OVA-B16 melanoma mice, adoptive OT-1 CD8+ T cell transfer plus DMF or anti-PD-1 antibody; assay type: in vivo; conditions: anti-PD-1 antibody 250 μg/day or DMF 5 μg/mouse twice every day
# Protocol: (13) C57BL/6 mice with 5×5 mm OVA-B16 melanoma were adoptively transferred with or without OT-1 CD8^+ T cells (4×10^6 cells/mouse) once per three days for three times. At the same time, these mice were treated with PBS, DMF (5 μg/mouse, o.t., twice every day) or anti-PD-1 neutralizing antibody (250 μg/day, once every two days, twice) for 20 days. The tumor growth was measured (left) and the long-term survival rate was analyzed (right).
# [6] = tested on: B16 melanoma; assay: B16 melanoma-bearing C57BL/6 mice treated with Kyn, DMF or Kyn+DMF; assay type: in vivo, mouse
# Protocol: (9) C57BL/6 mice with 5×5 mm B16 melanoma were treated with PBS, Kyn (50 μg/mouse, i.p., once every two days), DMF (5 μg/mouse, o.t., once every day) or Kyn+DMF for 6 days. PD-1 expression in CD8^+ T cells isolated from tumors was determined by flow cytometry (n=5). (14) The experimental steps were the same as those of step (9), except that the tumors were weighed. The weighing results were as shown in FIG. 6P. *p<0.05, **p<0.01; #p<0.05, ##p<0.01, as compared with CTL group. The data represented mean±SEM.
# [7] = tested on: AhR; assay: PD-1 expression in activated CD8+ T cells treated with Kyn plus AhR inhibitor (flow cytometry); assay type: cell-based, mouse; conditions: Kyn plus inhibitor (DMF 10 or 20 μM), 72 h
# Protocol: (4) CD8^+ T cells activated by anti-CD3/CD28 beads were treated with PBS, Kyn or Kyn/DMF (10 or 20 μM) for 72 h. The expression of PD-1 was determined by flow cytometry.
# [8] = tested on: PD-1; assay: PD-1 expression in human CD8+ T cells treated with Kyn and AhR inhibitors (flow cytometry); assay type: cell-based; conditions: 48 h
# Protocol: (4) CD8^+ T cells isolated from PBMCs of patients with breast cancer or lung cancer were activated by anti-CD3/CD28 beads and treated with PBS, Kyn (200 μM) or Kyn/DMF (20 μM) for 48 h. The expression of PD-1 was determined by flow cytometry.
# (5) CD8^+ T cells isolated from patients with breast cancer or lung cancer were treated with DMF (20 μM) for 48 h. PD-1 expression was determined by flow cytometry (n=6).
# [9] = tested on: PAT4 and SLC7A8; assay: PAT4 and SLC7A8 expression in activated CD8+ T cells (real-time PCR, immunostaining); assay type: cell-based, mouse
# Protocol: (2) Activated CD8^+ T cells were treated with PBS or Kyn (200 μM) for 24 h. The expression of PAT4 and SLC7A8 was determined by real-time PCR (left) and immunostaining (right). Bar, […].
# (6) The mRNA expression of PAT4 and SLC7A8 was determined in activated CD8^+ T cells treated with PBS, Kyn, Kyn/CH-223191 (10 μM) or Kyn/DMF (20 μM) for 48 h.
# [10] = tested on: PD-1; assay: ID8 ovarian cancer and H22 hepatocarcinoma ascites peritoneal tumor models; assay type: in vivo, mouse; conditions: DMF
# Protocol: (10) C57BL/6 mice were intraperitoneally injected with 1×10^6 ID8 ovarian cancer cells. After 10 days, mice were intraperitoneally administered with PBS, Kyn, DMF or Kyn+DMF for 6 days. CD8^+ T cells from ascites were isolated and PD-1 expression was determined by flow cytometry (n=5).
# [11] = target: T1, SLC1A5 (Mus musculus, UniProt P51912); assay: Tryptophan levels in B16 TRC lysates (ELISA); assay type: cell-based
# T1 construct: endogenous in cells; host or cells: B16 tumor-repopulating cells (TRCs)
# T1 sequence (P51912 1-553): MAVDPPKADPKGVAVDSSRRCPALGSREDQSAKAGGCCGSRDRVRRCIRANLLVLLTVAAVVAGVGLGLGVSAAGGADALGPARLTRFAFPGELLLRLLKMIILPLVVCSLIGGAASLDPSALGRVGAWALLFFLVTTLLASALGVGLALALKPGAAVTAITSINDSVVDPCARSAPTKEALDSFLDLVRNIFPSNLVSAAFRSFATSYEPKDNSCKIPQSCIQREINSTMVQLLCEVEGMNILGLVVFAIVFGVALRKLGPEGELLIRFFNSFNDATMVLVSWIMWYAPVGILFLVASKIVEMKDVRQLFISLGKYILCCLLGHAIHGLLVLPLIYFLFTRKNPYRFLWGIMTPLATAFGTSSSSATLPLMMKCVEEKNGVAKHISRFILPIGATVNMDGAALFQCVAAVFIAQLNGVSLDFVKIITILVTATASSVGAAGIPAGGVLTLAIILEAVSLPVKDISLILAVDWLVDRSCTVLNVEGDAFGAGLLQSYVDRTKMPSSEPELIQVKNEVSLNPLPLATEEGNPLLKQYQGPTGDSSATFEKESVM
# Protocol: (8) Tryptophan levels in cell lysates were determined by ELISA in scramble- and shSLC1A5-(Sh1 or Sh2)-B16 TRCs in the presence or absence of IFN-γ for 24 h.
# [12] = tested on: PD-1; assay: Effect of GPNA on PD-1 expression in specific OT-1 CD8+ T cells co-cultured with 3D-cultured OVA-B16 cells; assay type: cell-based, mouse; conditions: 3D-cultured OVA-B16 cells treated 12 h with 10 μM GPNA, co-culture 1:10, 4 h
# Protocol: 3D-cultured OVA-B16 cells were grouped and treated with drug as follows.
# (§1) Control group 1 (PBS): culture medium+PBS;
# Experimental group 2 (GPNA): culture medium+10 μM GPNA;
# After 12 h of treatment, the cells were co-cultured with OT-1 CD8^+ T cells that had been activated for 48 h at a ratio of 1:10, and PD-1 expression in CD8^+ T cells was determined by flow cytometry after 4 h.
# [13] = target: T2, tryptophan transporter SLC1A5 (Mus musculus, UniProt P51912); assay: Effect of GPNA on the uptake of tryptophan by tumor cells (ELISA of lysates); assay type: cell-based; conditions: OVA-B16 cells, 50 ng/mL IFN-γ + 10 μM GPNA, 24 h
# T2 construct: endogenous in cells; host or cells: mouse OVA-B16 melanoma cells
# T2 sequence (P51912 1-553): T1 sequence (P51912 1-553)
# Protocol: Mouse OVA-B16 cells were cultured in RPMI-1640 culture medium in vitro and were group and treated as follows.
# as §1
# Control group 2 (GPNA): culture medium+10 μM GPNA;
# Experimental group 3 (IFN-γ): culture medium+50 ng/mL IFN-γ;
# Experimental group 4 (IFN-γ+GPNA): culture medium+50 ng/mL IFN-γ+10 μM GPNA;
# The cells in each group were collected after 24 h and ultrasonically broken, the concentrations of tryptophan in the lysates were determined by ELISA, and BCA protein assay was carried out at the same time.
# [14] = tested on: B16 TRCs; assay: Kyn release by IFN-γ-treated tumor cells (ELISA of supernatants); assay type: cell-based, mouse; conditions: IFN-γ 10 ng/ml, 24 h
# Protocol: (3) OVA-B16 cells grown in culture flask or OVA-B16 TRCs were treated with IFN-γ (10 ng/ml) for 24 h. Kyn levels in the supernatants were determined by ELISA.
# [15] = tested on: SLC1A5; assay: SLC1A5 expression in TRCs upon IFN-γ; assay type: cell-based; conditions: IFN-γ treatment, mRNA and protein levels
# [16] = tested on: PD-L1; assay: PD-L1 expression on TRCs upon IFN-γ; assay type: cell-based, mouse
# [17] = tested on: IDO1; assay: IDO1 expression in TRCs upon IFN-γ; assay type: cell-based
molecule,measurement,setting,value
Cn1cc(C[C@@H](N)C(=O)O)c2ccccc21 [1-MT],"expression of IFN-γ, TNF-α and CD107a",[1],upregulation
same,PD-1 expression on T cells,[1],downregulation
same,TRC apoptosis,[1],more TRC apoptosis
same,PD-1 upregulation in CD8+ T cells by supernatants,[2],blocked
"COc1ccc(-c2cc(=O)c3ccccc3o2)cc1OC [DMF, 3′,4′-dimethoxyflavone]",Kyn-triggered upregulation of PD-1 expression in tumor-specific CD8+ T cells,[3],abrogated
same,Kyn-induced upregulation of SLC7A8 and PAT4,[4],blocked
same,"therapeutic effect of adoptively transferred OVA-specific CD8+ T cells (tumor growth, survival)",[5],equal treatment efficiency
same,accelerated tumor growth seen with Kyn-treatment,[6]; Kyn+DMF,reversed
same,"Kyn-induced PD-1 upregulation in CD8+ T cells isolated from tumor, spleen or lymph nodes","[6]; Kyn+DMF (5 μg/mouse), 6 days",blocked
same,Kyn-dependent upsurge of PD-1,[7],thwarted
same,Kyn-induced PD-1 upregulation,"[8]; human CD8+ T cells, Kyn plus inhibitor (DMF 20 μM)",inhibited
same,PD-1 expression,"[8]; patients' CD8+ T cells, DMF alone 20 μM",directly downregulate PD-1 expression
same,Kyn-induced upregulation of SLC7A8 and PAT4,"[9]; activated CD8+ T cells, Kyn/CH-223191 (10 μM) or Kyn/DMF (20 μM), 48 h",effectively inhibiting
same,"expression pattern of PD-1, IFN-γ and TNF-α",[10],reversed
"N[C@@H](CCC(=O)Nc1ccc([N+](=O)[O-])cc1)C(=O)O [GPNA, L-γ-Glutamyl-p-nitroanilide]","expression of IFN-γ, TNF-α and CD107a",[1],upregulation
same,PD-1 expression on T cells,[1],downregulation
same,TRC apoptosis,[1],more TRC apoptosis
same,intracellular levels of tryptophan in TRCs,[11],decreased
same,PD-1 expression in specific OT-1 CD8+ T cells,[12],significantly inhibit
same,uptake of tryptophan by tumor cells,[13],significantly reduced
IFN-γ: recombinant IFN-γ purchased from R & D Systems,Kyn levels in the supernatants,[14],release high levels of Kyn
same,expression of SLC1A5,[15],further augmented
same,expression of PD-L1,[16],upregulated
same,IDO1 expression,[17],further upregulated
same,expression of PAT4 and SLC7A8,"[9]; CD8+ T cells, IFN-γ treatment",did not affect
